Measured values from ChEMBL document CHEMBL5291721, “A preclinical secondary pharmacology resource illuminates target-adverse drug reaction associations of marketed drugs” (Nat Commun, 2023).
“And” between values parts separate entries of the source, which are not always exact repeats. Equal values may be shown once.

Experiments:
[1] = target: T1, Gastrin/cholecystokinin type B receptor (Homo sapiens, UniProt P32239)
T1 sequence (P32239 whole entry): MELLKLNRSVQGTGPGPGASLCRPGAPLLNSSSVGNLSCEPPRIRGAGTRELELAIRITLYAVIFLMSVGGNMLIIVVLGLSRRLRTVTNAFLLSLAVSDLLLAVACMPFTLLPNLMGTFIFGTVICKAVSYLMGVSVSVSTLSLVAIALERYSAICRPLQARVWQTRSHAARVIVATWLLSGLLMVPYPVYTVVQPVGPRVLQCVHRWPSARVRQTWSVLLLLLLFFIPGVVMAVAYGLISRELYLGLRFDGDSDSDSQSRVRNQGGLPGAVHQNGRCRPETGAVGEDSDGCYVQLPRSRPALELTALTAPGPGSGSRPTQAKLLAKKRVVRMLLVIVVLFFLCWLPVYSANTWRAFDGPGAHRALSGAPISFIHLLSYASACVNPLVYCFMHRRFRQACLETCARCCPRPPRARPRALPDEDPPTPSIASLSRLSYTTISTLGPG

[2] = target: T2, Muscarinic acetylcholine receptor M2 (Homo sapiens, UniProt P08172); assay type: functional, cell-based
T2 sequence (P08172 whole entry): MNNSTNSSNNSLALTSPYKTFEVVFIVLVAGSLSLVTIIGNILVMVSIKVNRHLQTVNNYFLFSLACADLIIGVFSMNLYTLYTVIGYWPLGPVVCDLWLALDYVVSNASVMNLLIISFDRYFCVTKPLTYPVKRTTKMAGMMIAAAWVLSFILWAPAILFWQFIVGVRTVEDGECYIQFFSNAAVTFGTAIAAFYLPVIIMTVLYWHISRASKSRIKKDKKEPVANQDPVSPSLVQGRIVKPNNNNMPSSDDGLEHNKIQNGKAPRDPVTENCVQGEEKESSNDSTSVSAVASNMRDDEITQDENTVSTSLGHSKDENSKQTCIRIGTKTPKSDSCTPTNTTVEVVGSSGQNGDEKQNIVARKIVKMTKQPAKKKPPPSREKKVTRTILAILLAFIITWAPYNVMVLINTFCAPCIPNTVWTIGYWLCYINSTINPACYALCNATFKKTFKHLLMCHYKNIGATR

[3] = target: 5-hydroxytryptamine receptor 2A (Homo sapiens, UniProt P28223); assay type: functional, cell-based
Chain of 5-hydroxytryptamine receptor 2A (P28223 whole entry): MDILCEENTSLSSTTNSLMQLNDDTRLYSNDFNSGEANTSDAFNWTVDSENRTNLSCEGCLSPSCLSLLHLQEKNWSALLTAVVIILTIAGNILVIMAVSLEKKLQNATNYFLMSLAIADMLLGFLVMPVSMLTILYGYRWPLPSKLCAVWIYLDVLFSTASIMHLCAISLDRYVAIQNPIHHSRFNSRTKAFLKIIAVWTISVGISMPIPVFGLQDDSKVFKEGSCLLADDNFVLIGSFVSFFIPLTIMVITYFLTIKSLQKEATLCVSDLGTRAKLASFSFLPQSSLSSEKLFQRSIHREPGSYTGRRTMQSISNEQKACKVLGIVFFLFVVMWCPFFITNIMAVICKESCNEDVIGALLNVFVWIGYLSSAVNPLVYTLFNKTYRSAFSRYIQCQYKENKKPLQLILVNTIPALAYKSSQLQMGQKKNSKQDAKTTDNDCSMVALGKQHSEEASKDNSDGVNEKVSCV

[4] = target: T3, 5-hydroxytryptamine receptor 1A (Homo sapiens, UniProt P08908); assay type: functional, cell-based
T3 sequence (P08908 whole entry): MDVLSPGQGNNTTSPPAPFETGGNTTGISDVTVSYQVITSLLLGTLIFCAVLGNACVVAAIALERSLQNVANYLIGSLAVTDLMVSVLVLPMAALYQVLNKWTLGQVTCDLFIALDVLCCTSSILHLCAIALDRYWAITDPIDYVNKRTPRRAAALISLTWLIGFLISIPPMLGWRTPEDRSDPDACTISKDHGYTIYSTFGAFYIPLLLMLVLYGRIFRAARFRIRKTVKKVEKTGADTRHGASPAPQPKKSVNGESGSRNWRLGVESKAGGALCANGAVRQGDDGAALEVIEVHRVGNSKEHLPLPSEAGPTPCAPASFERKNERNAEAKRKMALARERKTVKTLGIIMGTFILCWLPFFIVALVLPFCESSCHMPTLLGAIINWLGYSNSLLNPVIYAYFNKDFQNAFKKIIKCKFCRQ

[5] = target: T4, Alpha-1A adrenergic receptor (Homo sapiens, UniProt P35348)
T4 sequence (P35348 whole entry): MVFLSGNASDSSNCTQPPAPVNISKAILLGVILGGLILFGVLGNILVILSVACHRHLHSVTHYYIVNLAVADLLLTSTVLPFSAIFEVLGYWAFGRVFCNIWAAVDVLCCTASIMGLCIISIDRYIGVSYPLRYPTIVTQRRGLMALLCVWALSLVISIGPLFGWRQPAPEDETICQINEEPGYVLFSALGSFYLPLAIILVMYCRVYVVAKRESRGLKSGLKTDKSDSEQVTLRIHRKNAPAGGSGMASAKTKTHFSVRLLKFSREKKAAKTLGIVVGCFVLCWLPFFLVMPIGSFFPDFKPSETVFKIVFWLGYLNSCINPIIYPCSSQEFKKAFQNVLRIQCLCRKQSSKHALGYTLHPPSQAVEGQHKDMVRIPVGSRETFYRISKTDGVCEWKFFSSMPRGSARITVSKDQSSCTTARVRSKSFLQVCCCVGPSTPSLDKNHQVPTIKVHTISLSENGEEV

[6] = target: T5, Muscarinic acetylcholine receptor M1 (Homo sapiens, UniProt P11229); assay type: functional, cell-based
T5 sequence (P11229 whole entry): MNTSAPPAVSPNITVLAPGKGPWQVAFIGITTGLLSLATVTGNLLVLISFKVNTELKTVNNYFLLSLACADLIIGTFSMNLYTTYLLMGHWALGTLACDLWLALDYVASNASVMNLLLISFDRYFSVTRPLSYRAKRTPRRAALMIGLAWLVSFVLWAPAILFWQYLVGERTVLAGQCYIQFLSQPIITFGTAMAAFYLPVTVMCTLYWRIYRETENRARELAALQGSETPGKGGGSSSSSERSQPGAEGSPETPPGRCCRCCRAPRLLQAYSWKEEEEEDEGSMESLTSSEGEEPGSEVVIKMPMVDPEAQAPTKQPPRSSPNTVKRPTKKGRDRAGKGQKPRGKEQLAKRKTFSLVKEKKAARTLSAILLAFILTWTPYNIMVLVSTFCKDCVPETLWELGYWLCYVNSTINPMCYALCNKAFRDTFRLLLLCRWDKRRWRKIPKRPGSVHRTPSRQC

Thromboxane A2 receptor = target: T6, Thromboxane A2 receptor (Homo sapiens, UniProt P21731); assay type: functional, cell-based
T6 sequence (P21731 whole entry): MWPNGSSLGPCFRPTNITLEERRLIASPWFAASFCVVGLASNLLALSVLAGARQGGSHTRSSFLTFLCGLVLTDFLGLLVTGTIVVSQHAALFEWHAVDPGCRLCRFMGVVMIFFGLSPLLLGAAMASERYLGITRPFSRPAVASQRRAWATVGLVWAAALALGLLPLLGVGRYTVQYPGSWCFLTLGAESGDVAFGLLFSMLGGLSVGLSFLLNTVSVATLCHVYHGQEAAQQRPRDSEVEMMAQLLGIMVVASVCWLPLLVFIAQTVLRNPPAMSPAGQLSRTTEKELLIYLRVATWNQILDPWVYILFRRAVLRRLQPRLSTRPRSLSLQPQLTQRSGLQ

D(3) dopamine receptor = D(3) dopamine receptor (Homo sapiens, UniProt P35462)
Chain of D(3) dopamine receptor (P35462 whole entry): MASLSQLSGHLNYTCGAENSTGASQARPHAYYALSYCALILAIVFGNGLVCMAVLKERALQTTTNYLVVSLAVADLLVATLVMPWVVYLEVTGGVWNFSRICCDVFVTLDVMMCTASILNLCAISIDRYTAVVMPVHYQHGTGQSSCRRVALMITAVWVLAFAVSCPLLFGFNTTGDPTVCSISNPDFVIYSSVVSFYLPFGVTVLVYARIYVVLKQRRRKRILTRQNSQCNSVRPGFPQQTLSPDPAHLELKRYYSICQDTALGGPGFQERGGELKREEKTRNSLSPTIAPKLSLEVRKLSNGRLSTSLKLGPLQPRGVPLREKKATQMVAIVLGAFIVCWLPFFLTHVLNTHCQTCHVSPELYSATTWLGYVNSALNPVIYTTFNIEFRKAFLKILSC
Further: assay procedure not described here.

| Structure (SMILES) | AC50 [1] [µM] | AC50 [2] [µM] | AC50 [3] | AC50 [4] [µM] | AC50 [5] [µM] | AC50 [6] [µM] | AC50 (Thromboxane A2 receptor) [µM] | AC50 (D(3) dopamine receptor) [µM] |
| --- | --- | --- | --- | --- | --- | --- | --- | --- |
| CC1(C)S[C@@H]2[C@H](NC(=O)[C@H](N)c3ccccc3)C(=O)N2[C@H]1C(=O)OCOC(=O)[C@@H]1N2C(=O)C[C@H]2S(=O)(=O)C1(C)C [SULTAMICILLIN] | > 30 | > 30 | > 30 µM |  |  |  |  |  |
| Nc1ncn([C@H]2C[C@H](O)[C@@H](CO)O2)c(=O)n1 [DECITABINE] | > 30 | > 30 | > 30 µM | > 30 | > 30 |  |  |  |
| CCN(CCCc1ccccc1)CCCc1ccccc1 [ALVERINE] |  |  |  |  |  | > 30 | > 30 | 1.96 |
| CCOC(=O)C1=C[C@]2(CC)CCCN3CCc4c(n1c1ccccc41)[C@@H]32 [VINPOCETINE] | > 30 |  | > 30 µM |  |  |  |  |  |
| CC(C)COCC(CN(Cc1ccccc1)c1ccccc1)N1CCCC1 (configuration not stated) [BEPRIDIL] | > 30 | > 30 | 22 µM | > 10 |  |  |  |  |
| CC(C)(C)C(=O)OCC(=O)[C@H]1CC[C@H]2[C@@H]3CCC4=CC(=O)CC[C@]4(C)[C@H]3CC[C@]12C [DESOXYCORTICOSTERONE PIVALATE] |  | > 10 | > 10 µM |  | > 10 |  |  |  |
| C[C@]12CCC(=O)C(O)=C1CC[C@@H]1[C@@H]2CC[C@]2(C)C(=O)CC[C@@H]12 [FORMESTANE] | > 30 | > 30 | > 30 µM | > 30 |  |  |  |  |
| CCC1(c2ccccc2)CCC(=O)NC1=O (configuration not stated) [GLUTETHIMIDE] |  | > 10 | > 30 µM | > 30 | > 10 |  |  |  |
| CCC(C)C(CC)C(N)=O (configuration not stated) [VALNOCTAMIDE] | > 30 | > 30 | > 30 µM |  |  |  |  |  |
| C/N=C(\NC)NCc1ccccc1 [BETHANIDINE] | > 30 | > 30 | > 30 µM | > 30 |  |  |  |  |
| C[C@H](Cc1ccc(O)c(O)c1)[C@@H](C)Cc1ccc(O)c(O)c1 [MASOPROCOL] |  | > 30 | 13 µM and > 30 µM and 21 µM |  | 8.61 |  |  |  |
| CC1OC2(CS1)CN1CCC2CC1 (configuration not stated) [CEVIMELINE] |  |  | > 10 µM | > 10 | > 30 |  |  |  |
| C#C[C@]1(OC(C)=O)CC[C@H]2[C@@H]3CCC4=C/C(=N/O)CC[C@@H]4[C@H]3CC[C@@]21CC [NORGESTIMATE] | > 30 | > 30 | > 30 µM | > 30 |  |  |  |  |
| CC(C(=O)O)c1ccc(-c2ccccc2)c(F)c1 (configuration not stated) [FLURBIPROFEN] |  | > 10 |  | > 10 | > 10 |  | > 30 | > 30 |
| CCOC(=O)c1cncn1[C@H](C)c1ccccc1 [ETOMIDATE] |  | > 10 | > 10 µM | > 10 | > 10 |  |  |  |
| Clc1ccc(C(Cn2ccnc2)OCc2ccsc2Cl)c(Cl)c1 (configuration not stated) [TIOCONAZOLE] | > 30 | > 30 | 19 µM | > 30 | 13.5 |  |  |  |

| Structure (SMILES) | AC50 [1] [µM] | AC50 [2] [µM] | AC50 [3] | AC50 [4] [µM] | AC50 [5] [µM] | AC50 [6] [µM] | AC50 (Thromboxane A2 receptor) [µM] | AC50 (D(3) dopamine receptor) [µM] |
| --- | --- | --- | --- | --- | --- | --- | --- | --- |
| Clc1ccc2c(N3CCN(CCCN4CCN(c5ccnc6cc(Cl)ccc56)CC4)CC3)ccnc2c1 [PIPERAQUINE] | > 30 | > 30 | > 30 µM |  |  |  |  |  |
| CCC(C)C1(CC)C(=O)NC(=O)NC1=O (configuration not stated) [BUTABARBITAL] | > 30 | > 30 | > 30 µM |  |  |  |  |  |
| CC(=O)N[C@@H](CS)C(=O)O [ACETYLCYSTEINE] | > 30 | > 30 | > 30 µM | > 30 |  |  |  |  |
| COc1cc(N)c(Cl)cc1C(=O)NC1CCN(Cc2ccccc2)CC1 [CLEBOPRIDE] | > 30 | > 30 | 2.4 µM |  |  |  |  |  |
| C[C@]12CC[C@@H]3c4ccc(O)cc4C[C@@H](CCCCCCCCC[S+]([O-])CCCC(F)(F)C(F)(F)F)[C@H]3[C@@H]1CC[C@@H]2O (some centres not stated) [FULVESTRANT] | > 30 | > 30 | > 30 µM |  |  |  |  |  |
| CC(CCc1ccc(O)cc1)NCCc1ccc(O)c(O)c1 (configuration not stated) [DOBUTAMINE] | > 30 | > 30 |  | > 10 | 0.255 |  |  |  |
| Cc1cccc(N2CC(CO)OC2=O)c1 (configuration not stated) [TOLOXATONE] | > 30 | > 30 | > 30 µM |  |  |  |  |  |
| O=[N+]([O-])c1ccc(O)c2ncccc12 [NITROXOLINE] |  | > 30 | > 30 µM | > 30 |  |  | > 30 | 20.4 |
| COCC1=C(C(=O)O)N2C(=O)[C@@H](NC(=O)/C(=N\OC)c3csc(N)n3)[C@H]2SC1 [CEFPODOXIME] | > 30 | > 30 | > 30 µM | > 30 |  |  |  |  |
| CNCc1ccc(-c2[nH]c3cc(F)cc4c3c2CCNC4=O)cc1 [RUCAPARIB] | > 30 | > 10 | > 10 µM |  | 12.3 |  |  |  |
| Cc1cnc(C(=O)NCCc2ccc(S(=O)(=O)NC(=O)NC3CCCCC3)cc2)cn1 [GLIPIZIDE] | > 30 |  |  | > 10 | > 10 |  | > 30 |  |
| CC(C)[C@H](N)C(=O)OCC(CO)OCn1cnc2c(=O)nc(N)[nH]c21 (some centres not stated) [VALGANCICLOVIR] | > 30 | > 30 | > 30 µM | > 30 | > 30 |  |  |  |
| C=CCNc1nc(NCC=C)nc(N2CCN(C(c3ccc(F)cc3)c3ccc(F)cc3)CC2)n1 [ALMITRINE] | > 30 | > 30 | > 30 µM | > 30 | > 30 |  |  |  |
| CCC(=O)O[C@H]1CC[C@H]2[C@@H]3CCC4=CC(=O)CC[C@]4(C)[C@H]3CC[C@]12C [TESTOSTERONE PROPIONATE] |  | > 10 | > 30 µM | > 10 | > 10 |  |  |  |
| CC(N)C(O)c1ccccc1 (configuration not stated) [PHENYLPROPANOLAMINE] | > 30 | > 10 |  | > 10 | > 10 |  |  |  |
